Laboratory results from ChEMBL document CHEMBL1123112, “A new generation of phosphodiesterase inhibitors: multiple molecular forms of phosphodiesterase and the potential for drug selectivity” (J Med Chem, 1985).

Tests used:
Phosphodiesterase 3 [1] = molecular target: T1, Phosphodiesterase 3 (Homo sapiens, UniProt Q14432+Q13370); assay: Inhibition of low Km cyclic cAMP phosphodiesterase PDE III of guinea pig ventricle; assay type: protein assay, Cavia porcellus; conditions: target entry is the homologue from another species
Phosphodiesterase 1 [2] = molecular target: T2, Phosphodiesterase 1 (Homo sapiens, UniProt P54750+Q01064+Q14123); assay: Inhibition of [Ca(2+)]/calmodulin dependent phosphodiesterase PDE 1 of rabbit renal cortex; conditions: Oryctolagus cuniculus; target entry is the homologue from another species
[3] = molecular target: T3, cGMP-dependent 3',5'-cyclic phosphodiesterase (Homo sapiens, UniProt O00408); assay: Inhibition of cyclic GMP sensitive phosphodiesterase PDE 2 of guinea pig ventricle; parameters: species or system Cavia porcellus; conditions: target entry is the homologue from another species
Phosphodiesterase 1 [4] = molecular target: T2, Phosphodiesterase 1; assay: Inhibition of [Ca(2+)]/calmodulin dependent phosphodiesterase PDE 1 of guinea pig ventricle; assay type: protein assay, Cavia porcellus; conditions: target entry is the homologue from another species
Phosphodiesterase 1 [5] = molecular target: T2, Phosphodiesterase 1; assay: Inhibition of [Ca(2+)]/calmodulin dependent phosphodiesterase PDE 1 of human brain
Phosphodiesterase 3 [6] = molecular target: T1, Phosphodiesterase 3; assay: Inhibition of low Km cAMP phosphodiesterase PDE III of human platelets
Phosphodiesterase 1 [7] = molecular target: T2, Phosphodiesterase 1; assay: Binding affinity for [Ca(2+)]/calmodulin dependent phosphodiesterase PDE 1 of sheep lung; assay type: protein assay, Ovis aries; conditions: target entry is the homologue from another species
Phosphodiesterase 3 [8] = molecular target: T1, Phosphodiesterase 3; assay: Binding affinity for low Km cAMP phosphodiesterase PDE III of sheep lung; conditions: target entry is the homologue from another species
Phosphodiesterase 1 [9] = molecular target: T2, Phosphodiesterase 1; assay: Binding affinity for [Ca(2+)]/calmodulin dependent phosphodiesterase PDE 1 of human brain
Phosphodiesterase 3 [10] = molecular target: T1, Phosphodiesterase 3; assay: Binding affinity for low Km cAMP phosphodiesterase PDE III of human platelets
[11] = molecular target: T3, cGMP-dependent 3',5'-cyclic phosphodiesterase; assay: Percent inhibition of cyclic GMP sensitive phosphodiesterase PDE 2 of guinea pig ventricle; conditions: Cavia porcellus; target entry is the homologue from another species; concentration not given here
Phosphodiesterase 1 [12] = molecular target: T2, Phosphodiesterase 1; assay: Percent inhibition of [Ca(2+)]/calmodulin dependent phosphodiesterase PDE 1 of guinea pig ventricle; assay type: protein assay; conditions: Cavia porcellus; target entry is the homologue from another species; concentration not given here
Phosphodiesterase 3 [13] = molecular target: T1, Phosphodiesterase 3; assay: Percent inhibition of low Km cyclic cAMP phosphodiesterase PDE III of guinea pig ventricle; assay type: protein assay; conditions: Cavia porcellus; target entry is the homologue from another species; concentration not given here
[14] = molecular target: T3, cGMP-dependent 3',5'-cyclic phosphodiesterase; assay: Inhibition of cyclic GMP sensitive phosphodiesterase PDE 2 of human lung
Phosphodiesterase 1 [15] = molecular target: T2, Phosphodiesterase 1; assay: Inhibition of [Ca(2+)]/calmodulin dependent phosphodiesterase PDE 1 of human lung; assay type: protein assay
Phosphodiesterase 3 [16] = molecular target: T1, Phosphodiesterase 3; assay: Inhibition of low Km cyclic AMP phosphodiesterase PDE III of canine ventricle; assay type: protein assay, Canis lupus familiaris; conditions: target entry is the homologue from another species
Phosphodiesterase 3 [17] = molecular target: T1, Phosphodiesterase 3; assay: Binding affinity for low Km cAMP phosphodiesterase PDE III of sheep lung; assay type: protein assay, Ovis aries; conditions: target entry is the homologue from another species

T3 sequence (O00408 whole entry): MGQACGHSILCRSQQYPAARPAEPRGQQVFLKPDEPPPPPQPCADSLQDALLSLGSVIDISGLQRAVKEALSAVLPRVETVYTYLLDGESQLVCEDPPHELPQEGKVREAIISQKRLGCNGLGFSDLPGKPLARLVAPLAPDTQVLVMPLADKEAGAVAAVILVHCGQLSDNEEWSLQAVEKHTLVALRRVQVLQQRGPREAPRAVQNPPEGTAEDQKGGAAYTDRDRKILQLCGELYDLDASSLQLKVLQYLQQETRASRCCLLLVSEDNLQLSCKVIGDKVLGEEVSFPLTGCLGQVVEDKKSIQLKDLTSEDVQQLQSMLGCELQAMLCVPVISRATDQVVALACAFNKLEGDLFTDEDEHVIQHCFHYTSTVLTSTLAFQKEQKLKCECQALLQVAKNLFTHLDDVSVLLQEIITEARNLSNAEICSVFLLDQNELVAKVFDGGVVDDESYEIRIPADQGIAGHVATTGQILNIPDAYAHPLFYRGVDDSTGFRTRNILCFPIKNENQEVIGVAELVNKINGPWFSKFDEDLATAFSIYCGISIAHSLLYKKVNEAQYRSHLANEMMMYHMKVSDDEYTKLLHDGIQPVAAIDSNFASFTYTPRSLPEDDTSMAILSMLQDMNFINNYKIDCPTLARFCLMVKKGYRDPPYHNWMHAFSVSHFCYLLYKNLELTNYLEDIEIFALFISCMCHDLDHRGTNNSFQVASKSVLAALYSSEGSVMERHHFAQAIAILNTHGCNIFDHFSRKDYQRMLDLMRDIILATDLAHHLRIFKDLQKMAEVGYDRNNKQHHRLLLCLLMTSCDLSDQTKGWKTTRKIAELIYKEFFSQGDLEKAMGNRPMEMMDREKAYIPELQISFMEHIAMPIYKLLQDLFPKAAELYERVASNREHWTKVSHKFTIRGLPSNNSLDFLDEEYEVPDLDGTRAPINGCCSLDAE

`OCCN(CCO)c1nc(N2CCCCC2)c2nc(N(CCO)CCO)nc(N3CCCCC3)c2n1` [DIPYRIDAMOLE] was tested, and the IC50 (Phosphodiesterase 3 [1]) was 43 µM.
`COc1ccc(C2CNC(=O)C2)cc1OC1CCCC1` (centres undefined) showed an IC25 (Phosphodiesterase 1 [2]) of 1400 µM.
Work on `CSc1ccc(C(=O)c2[nH]c(=O)[nH]c2C)cc1` [ENOXIMONE] yielded an IC50 [3] of 520 µM and an IC50 (Phosphodiesterase 1 [4]) of over 1000 µM.
Compound `COc1ccc(-c2nc3ccc[nH]c-3n2)c(OC)c1` has an IC50 [3] of 57 µM, an IC50 (Phosphodiesterase 1 [4]) of 265 µM and an IC50 (Phosphodiesterase 3 [1]) of 390 µM.
Compound `Nc1cc(-c2ccncc2)c[nH]c1=O` [INAMRINONE] has an IC50 [3] of 700 µM and an IC50 (Phosphodiesterase 1 [4]) of over 1000 µM.
For `CCC(O)CN(C(=O)CCCCOc1ccc2c(c1)CCC(=O)N2)c1ccccc1` (centres undefined), the IC50 (Phosphodiesterase 1 [5]) was over 1000 µM and the IC50 (Phosphodiesterase 3 [6]) was 0.073 µM.
In the case of `CCCc1nc(C)cn2c(NC(C)=O)nnc12`, the Ki (Phosphodiesterase 1 [7]) is reported as 717 µM and the Ki (Phosphodiesterase 3 [8]) is reported as 217 µM.
For `CCOC(=O)c1c(C)cc2c(CO)n[nH]c(=O)c2c1C` [OXAGRELATE], the Ki (Phosphodiesterase 1 [9]) was 10 µM and the Ki (Phosphodiesterase 3 [10]) was 1.4 µM.
`CC(Cl)C(=O)Nc1ccc(C2=NNC(=O)CC2C)cc1` (centres undefined) showed an inhibition [11] of 0%, an inhibition (Phosphodiesterase 1 [12]) of 5% and an inhibition (Phosphodiesterase 3 [13]) of 92%.
Work on `CCCCc1cc2c(=O)cc(C(=O)O)[nH]c2c2c(=O)cc(C(=O)O)[nH]c12` [BUFROLIN] yielded an IC50 [14] of 80 µM and an IC50 (Phosphodiesterase 1 [15]) of 16 µM.
Work on `O=C1CCc2cc(OCCCCc3nnnn3C3CCCCC3)ccc2N1` [CILOSTAZOL] yielded an IC50 (Phosphodiesterase 1 [5]) of over 1000 µM and an IC50 (Phosphodiesterase 3 [6]) of 0.19 µM.
With `CCCCOc1cc(CC2CNC(=O)N2)ccc1OC` (centres undefined) [RO-201724] the IC50 [14] was 390 µM and the IC50 (Phosphodiesterase 1 [15]) was 250 µM.
`CN(C(=O)CCCOc1ccc2[nH]c(=O)ccc2c1)C1CCCCC1` [CILOSTAMIDE] was tested, and the Ki (Phosphodiesterase 1 [9]) was 22 µM.
`Clc1cccc(Nc2nnc(-c3ccccc3)c3ccccc23)c1` gave a Ki (Phosphodiesterase 3 [10]) of 16 µM.
`CC(C)Cn1c(=O)n(C)c(=O)c2nc[nH]c21` [ISOBUTYLMETHYLXANTHINE] gave an IC50 [14] of 12 µM and an IC50 (Phosphodiesterase 1 [15]) of 3.4 µM.
`CCOC(CN1CCN(S(=O)(=O)c2ccc3ncnc(N(C)c4ccccc4)c3c2)CC1)c1ccccc1` (centres undefined) was tested, and the Ki (Phosphodiesterase 1 [9]) was 4 µM and the Ki (Phosphodiesterase 3 [10]) was 270 µM.
Compound `COc1cc([S+](C)[O-])ccc1-c1nc2ncccc2[nH]1` (centres undefined) [SULMAZOLE] has an IC50 [3] of 200 µM.
`CC1CC(=O)NN=C1c1ccc2c(c1)CCC(=O)N2C` (centres undefined) gave an inhibition [11] of 6%, an inhibition (Phosphodiesterase 1 [12]) of 15% and an inhibition (Phosphodiesterase 3 [13]) of 97%.
In the case of `CCc1[nH]c(=O)[nH]c1C(=O)c1ccncc1` [PIROXIMONE], the IC50 (Phosphodiesterase 3 [16]) is reported as 8.6 µM.
Work on `CCOC(=O)c1cnc2c(cnn2CC)c1NN=C(C)C` [ETAZOLATE] yielded a Ki (Phosphodiesterase 1 [7]) of 60 µM and a Ki (Phosphodiesterase 3 [17]) of 12 µM.
`Cn1c(=O)c2nc[nH]c2n(C)c1=O.O` [THEOPHYLLINE] was tested, and the IC50 [3] was 210 µM and the IC50 (Phosphodiesterase 1 [4]) was 320 µM.
